Experimental data taken from patent publication US10576085B2, “Substituted aminopurine compounds, compositions thereof, and methods of treatment therewith” (Signal Pharmaceuticals, LLC, priority 2016, dated 2020).

System: cancer cell lines of Table 2
Test: Multiplexed cytotoxicity assay: apoptosis (activated caspase-3; Cal_X2, Cal_X5, Max_Fold_Change)
Assay type: cell-based
Procedure: Cells are grown in RPMI1640, 10% FBS, 2 mM L-alanyl-L-Glutamine, 1 mM Na pyruvate or a special medium in a humidified atmosphere of 5% CO2 at 37° C. Cells are seeded into 384-well plates and incubated in a humidified atmosphere of 5% CO2 at 37° C. Compounds are added 24 h post cell seeding. At the same time, a time zero untreated cell plate is generated. After a 72 hour incubation period, cells are fixed and stained with fluorescently labeled antibodies and nuclear dye to allow visualization of nuclei, apoptotic cells and mitotic cells. Apoptotic cells are detected using an anti-active caspase-3 antibody. Mitotic cells are detected using an anti phospho-histone-3 antibody. Compounds are serially diluted 3.16-fold and assayed over 10 concentrations in a final assay concentration of 0.1% DMSO from the highest test concentration of 10 μM. Automated fluorescence microscopy was carried out using a Molecular Devices ImageXpress Micro XL high-content imager, and images are collected with a 4× objective.
The activated caspase-3 marker labels cells from early to late stage apoptosis. Concentrations of test compound that cause a 5-fold induction in the caspase-3 signal (Cal_X5) indicate significant apoptosis induction. The maximal induction of caspase 3 by compound in comparison with DMSO control is reported as Max_Fold_Change.
In Another Experiment, Cells were Grown in RPMI1640, 10% FBS, 2 mM L-alanyl-L-Glutamine, 1 mM Na pyruvate or a special medium in a humidified atmosphere of 5% CO2 at 37° C. Cells were seeded into 384-well plates and incubated in a humidified atmosphere of 5% CO2 at 37° C. Compounds were added 24 h post cell seeding. At the same time, a time zero untreated cell plate was generated. After a 72 hour incubation period, cells were fixed and stained with fluorescently labeled antibodies and nuclear dye to allow visualization of nuclei, apoptotic cells and mitotic cells. Apoptotic cells were detected using an anti-active caspase-3 antibody. Mitotic cells were detected using an anti phospho-histone-3 antibody. Compounds were serially diluted 3.16-fold and assayed over 10 concentrations in a final assay concentration of 0.1% DMSO from the highest test concentration of 10 μM. Automated fluorescence microscopy was carried out using a Molecular Devices ImageXpress Micro XL high-content imager, and images were collected with a 4× objective.
The activated caspase-3 marker labels cells from early to late stage apoptosis. Concentrations of test compound that cause a 2-fold (Cal-X2) or 5-fold induction in the caspase-3 signal (Cal_X5) indicated significant apoptosis induction. The maximal induction of caspase 3 by compound in comparison with DMSO control was reported as Max_Fold_Change.

## C[C@]1(C(N)=O)CC[C@@H](n2c(Nc3c(Cl)cc(Cl)cc3Cl)nc3cnc(N[C@@H]4CCOC[C@H]4F)nc32)CC1 [Compound 1, cis-4-[2-{[(3S,4R)-3-fluorooxan-4-yl]amino}-8-(2,4,6-trichloroanilino)-9H-purin-9-yl]-1-methyl cyclohexane-1-carboxamide]
639V, Bladder
  CalX2: 0.0841 µM
  CalX5: 0.465 µM
  Max fold change: 6.33
647V, Bladder
  CalX2: 2.7413 µM
  CalX5: 4.45 µM
  Max fold change: 19.29
769P, Kidney
  CalX2: 0.2023 µM
  CalX5: 5.11 µM
  Max fold change: 5.67
786O, Kidney
  CalX2: 10 µM
  CalX5: 10 µM
  Max fold change: 0.83
A7, Skin, Melanoma
  CalX2: 5.0814 µM
  CalX5: 9.4 µM
  Max fold change: 5.51
A101D, Skin, Melanoma
  CalX2: 0.4207 µM
  CalX5: 3.71 µM
  Max fold change: 7.93
A375, Skin, Melanoma
  CalX2: 0.0673 µM
  CalX5: 0.0827 µM
  Max fold change: 103.79
A498, Kidney
  CalX2: 0.5562 µM
  CalX5: 10 µM
  Max fold change: 4.72
A704, Kidney
  CalX2: 10 µM
  CalX5: 10 µM
  Max fold change: 0.96
A2058, Skin, Melanoma
  CalX2: 0.065 µM
  CalX5: 0.204 µM
  Max fold change: 11.68
ACHN, Kidney
  CalX2: 0.78 µM
  CalX5: 10 µM
  Max fold change: 2.97
AU565, Breast
  CalX2: 3.8749 µM
  CalX5: 7.14 µM
  Max fold change: 14.18
BC1, Lymphoma
  CalX2: 5.1005 µM
  CalX5: 6.54 µM
  Max fold change: 8.72
BCP1, Lymphoma
  CalX2: 4.8663 µM
  CalX5: 7.36 µM
  Max fold change: 6.56
BFTC905, Bladder
  CalX2: 0.0179 µM
  CalX5: 0.0414 µM
  Max fold change: 45.3
BT20, Breast
  CalX2: 10 µM
  CalX5: 10 µM
  Max fold change: 1.81
BT474, Breast
  CalX2: 10 µM
  CalX5: 10 µM
  Max fold change: 0.94
BV173, Leukemia
  CalX2: 0.4959 µM
  CalX5: 10 µM
  Max fold change: 2.91
C32, Skin, Melanoma
  CalX2: 0.0451 µM
  CalX5: 0.0778 µM
  Max fold change: 110.9
C32TG, Skin, Melanoma
  CalX2: 0.0608 µM
  CalX5: 0.117 µM
  Max fold change: 42.82
CA46, Lymphoma
  CalX2: 3.2395 µM
  CalX5: 8.08 µM
  Max fold change: 9.46
CAKI1, Kidney
  CalX2: 0.2015 µM
  CalX5: 10 µM
  Max fold change: 4.12
CAKI2, Kidney
  CalX2: 0.1631 µM
  CalX5: 0.449 µM
  Max fold change: 6.26
CCRFCEM, Leukemia
  CalX2: 3.4279 µM
  CalX5: 6.95 µM
  Max fold change: 12.74
CEMC1, Leukemia
  CalX2: 4.1828 µM
  CalX5: 5.22 µM
  Max fold change: 11.27
CHL1, Skin, Melanoma
  CalX2: 1.2376 µM
  CalX5: 10 µM
  Max fold change: 3.46
CMLT1, Leukemia
  CalX2: 0.0948 µM
  CalX5: 10 µM
  Max fold change: 4.85
COLO829, Skin, Melanoma
  CalX2: 0.0421 µM
  CalX5: 0.125 µM
  Max fold change: 24.28
CROAP2, Lymphoma
  CalX2: 2.9603 µM
  CalX5: 4.2 µM
  Max fold change: 50.79
D283MED, CNS, Medulloblastoma
  CalX2: 8.3456 µM
  CalX5: 10 µM
  Max fold change: 2.23
D341MED, CNS, Medulloblastoma
  CalX2: 7.7855 µM
  CalX5: 10 µM
  Max fold change: 2.14
DAOY, CNS, Medulloblastoma
  CalX2: 3.2773 µM
  CalX5: 5.22 µM
  Max fold change: 16.68
DAUDI, Lymphoma
  CalX2: 3.9392 µM
  CalX5: 5.33 µM
  Max fold change: 10.08
DB, Lymphoma
  CalX2: 6.1153 µM
  CalX5: 6.5 µM
  Max fold change: 7.11
DOHH2, Lymphoma
  CalX2: 2.4833 µM
  CalX5: 3.99 µM
  Max fold change: 20.41
EB2, Lymphoma
  CalX2: 5.7381 µM
  CalX5: 10 µM
  Max fold change: 4.16
EB3, Lymphoma
  CalX2: 6.1469 µM
  CalX5: 7.66 µM
  Max fold change: 5.5
EM2, Leukemia
  CalX2: 10 µM
  CalX5: 10 µM
  Max fold change: 1.55
G361, Skin, Melanoma
  CalX2: 0.0428 µM
  CalX5: 0.12 µM
  Max fold change: 24.48
G401, Kidney
  CalX2: 0.0717 µM
  CalX5: 0.179 µM
  Max fold change: 30.87
G402, Kidney
  CalX2: 0.0162 µM
  CalX5: 0.637 µM
  Max fold change: 7.34
GA10, Lymphoma
  CalX2: 0.6477 µM
  CalX5: 1.94 µM
  Max fold change: 6.49
H9, Lymphoma
  CalX2: 0.0222 µM
  CalX5: 0.4 µM
  Max fold change: 7.33
HEL9217, Leukemia
  CalX2: 3.2991 µM
  CalX5: 6.57 µM
  Max fold change: 6.23
HEPG2, Liver
  CalX2: 0.0041 µM
  CalX5: 0.0108 µM
  Max fold change: 62.47
HLE, Liver
  CalX2: 0.8174 µM
  CalX5: 10 µM
  Max fold change: 2.5
HLF, Liver
  CalX2: 10 µM
  CalX5: 10 µM
  Max fold change: 1.95
HMCB, Skin, Melanoma
  CalX2: 10 µM
  CalX5: 10 µM
  Max fold change: 1.8
HS294T, Skin, Melanoma
  CalX2: 0.154 µM
  CalX5: 2.15 µM
  Max fold change: 5.74
HS445, Lymphoma
  CalX2: 4.9128 µM
  CalX5: 7.7 µM
  Max fold change: 5.65
